The values below come from ChEMBL document CHEMBL2074550, “Carbamazepine is not a substrate for P-glycoprotein” (Br J Clin Pharmacol, 2001).

In series [1] the target is T1, ATP-dependent translocase ABCB1 (Homo sapiens, UniProt P08183). Nature of the series: TP_TRANSPORTER: inhibition of Rhodamine 123 efflux (R123: 1.5 ug/mL, Carbamazepine: 100 uM) in human lymphocytes. Particulars: lymphocyte. The format is functional, cell-based.
In series [2] the target is P-glycoprotein 1 and 3 (MDR1a/MDR1b) (Mus musculus, UniProt P21447+P06795). Nature of the series: TP_TRANSPORTER: no change in brain concentration in mdr1a/1b(-/-) mouse. The note with it: in vivo. The format is functional, organism-based.
The target in series [3] is T1, ATP-dependent translocase ABCB1. Nature of the series: TP_TRANSPORTER: transepithelial transport (basal to apical) in Caco-2 cells. The format is functional, cell-based. (In general: Caco-2 cells form a polarised layer with tight junctions and transporters.)

T1 sequence (P08183 whole entry): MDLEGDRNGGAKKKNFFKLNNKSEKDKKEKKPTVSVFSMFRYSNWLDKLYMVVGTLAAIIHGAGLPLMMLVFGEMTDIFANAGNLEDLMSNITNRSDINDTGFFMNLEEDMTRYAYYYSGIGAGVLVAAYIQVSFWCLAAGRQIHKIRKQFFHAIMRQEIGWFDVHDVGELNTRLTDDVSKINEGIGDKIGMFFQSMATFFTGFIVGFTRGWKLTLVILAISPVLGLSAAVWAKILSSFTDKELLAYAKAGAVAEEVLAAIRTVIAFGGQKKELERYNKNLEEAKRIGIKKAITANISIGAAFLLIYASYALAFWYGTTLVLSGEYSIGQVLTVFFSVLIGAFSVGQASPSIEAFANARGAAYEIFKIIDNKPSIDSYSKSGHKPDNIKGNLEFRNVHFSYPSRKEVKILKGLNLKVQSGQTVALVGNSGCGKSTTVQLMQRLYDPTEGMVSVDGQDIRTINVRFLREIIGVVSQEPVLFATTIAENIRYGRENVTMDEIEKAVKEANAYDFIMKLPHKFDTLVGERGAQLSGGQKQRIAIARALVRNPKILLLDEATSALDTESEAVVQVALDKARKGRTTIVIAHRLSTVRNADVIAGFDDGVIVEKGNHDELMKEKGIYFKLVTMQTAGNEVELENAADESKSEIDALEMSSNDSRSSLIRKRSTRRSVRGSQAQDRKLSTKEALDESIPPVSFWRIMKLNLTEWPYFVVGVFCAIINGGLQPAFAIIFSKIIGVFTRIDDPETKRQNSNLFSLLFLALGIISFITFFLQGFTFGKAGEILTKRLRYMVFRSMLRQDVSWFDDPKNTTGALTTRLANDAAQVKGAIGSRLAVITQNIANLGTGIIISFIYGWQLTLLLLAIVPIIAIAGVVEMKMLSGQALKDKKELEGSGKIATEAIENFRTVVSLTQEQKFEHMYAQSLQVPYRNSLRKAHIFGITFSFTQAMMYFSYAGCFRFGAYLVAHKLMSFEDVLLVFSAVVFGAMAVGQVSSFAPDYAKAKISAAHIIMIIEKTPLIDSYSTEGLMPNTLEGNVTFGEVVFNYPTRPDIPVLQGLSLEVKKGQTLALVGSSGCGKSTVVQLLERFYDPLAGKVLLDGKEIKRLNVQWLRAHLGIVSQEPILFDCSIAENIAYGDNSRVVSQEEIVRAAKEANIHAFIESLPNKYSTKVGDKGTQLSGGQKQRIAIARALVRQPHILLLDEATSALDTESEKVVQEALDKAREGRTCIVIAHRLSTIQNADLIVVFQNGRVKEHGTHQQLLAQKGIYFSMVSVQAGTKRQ

For the compound `NC(=O)N1c2ccccc2C=Cc2ccccc21` [CARBAMAZEPINE], the Activity result in series [1] is “is not an inhibitor [-]”; in series [2], “is not a substrate [-]”; in series [3], “is not a substrate [-]”.
